One assay has as its system hESCs. The experiment in a line: Embryoid body formation from dissociated hESCs. The class given is cell-based, human. To be noted: EB formation in suspension culture. The text has this:
(§1) As detailed in the following examples, cardiac differentiation was initiated by formation of embryoid bodies (EBs) in suspension culture from hESCs as exemplary stem cells, maintained in feeder-free, serum-free culture. […] In the first phase of the differentiation process (Stage 1; days 2-4.5), the cells were differentiated into primitive streak-mesendoderm and subsequently to cardiac mesoderm by the combinatorial activation of the BMP and Nodal signaling pathways. In the second phase (Stage 2; days 4.5-8) the inhibition of the Wnt/β-catenin pathway by the small molecule IWR-1^29 enhanced the differentiation of the cardiac progenitors to the ventricular cardiomyocyte lineage.

For another assay, the system named is hESC-VCMs. Nature of the assay: Patch-clamp AP recording and confocal Ca2+ imaging of hESC-VCMs. The class given is cell-based, human. For orientation: Patch clamp records ionic current or voltage across a cell membrane.
A further assay relates to HES2-VCMs. The settings on record: H2O2 100 μM, 30 minutes, 37° C.; ratio before stress 1.146. On the procedure:
Mitochondrial membrane potential in HES2-VCMs was measured with the potential-sensitive dye JC-1 (Invitrogen). LV-MLC2v-Tdtomato-T2A-Zeo transduced and Zeo-selected HES2-VCMs (30- to 50-day-old) were incubated at 37° C. with 0.5 μM JC-1 in serum free DMEM medium for 15 minutes. To simulate metabolic oxidative stress, hES2-VCMs were treated with hydrogen peroxide (H2O2; 100 μM) for 30 minutes at 37° C., after which JC-1 orange and green fluorescence intensities were measured for mitochondrial membrane potential with a LSM Carl Zeiss 510 Meta microscope.

Another assay relates to hPSC. To be noted: cited from earlier work.
The test system of another assay is Wnt/β-catenin pathway. Nature of the assay: Directed differentiation to ventricular cardiomyocytes with Wnt inhibition. It is filed as cell-based, human.
Description: as §1
For directed cell differentiation, undifferentiated hPSCs were digested into smaller clusters using Dispase (STEMCELL Technologies; 1 mg/ml for 8 minutes at 37° C.) and seeded onto Matrigel™-coated plates at 3×10^4 cells/ml in mTeSR™ 1 medium for 4 days until there was about 80-90% confluence on D0. To initiate cardiac differentiation, hPSCs were digested into single cell suspensions using Accutase (Invitrogen) and cultured in mTeSR™ 1 medium with Matrigel™ (40 μg/ml) with BMP-4 (1 ng/ml, Invitrogen) and Rho kinase inhibitor (ROCK) Inhibitor (10 μM; R&D) under a hypoxic condition with 5% O2. […] Cardiac mesodermal cells developed into functional contracting clusters could be detected as early as day 8. […]

Description for hESC-VCMs: The electrophysiological experiments disclosed in the Examples were performed using the whole-cell patch-clamp technique as previously described.^65-67 To profile chamber-specific subtypes of the hPSC-CMs, action potentials of the myocytes were randomly probed at 37° C. with the patch-clamp technique using an EPC-10 amplifier and Pulse software (Heka Elektronik, Germany), with the current-clamp mode (0.1-0.5 nA for 1-5 ms) under the whole-cell configuration applied. The hPSC-CMs were categorized into nodal-, atrial- or ventricular-like, as previously described.^62,65,66 Voltage-clamp recordings of ionic currents were performed using an automated parallel patch-clamp system (PatchXpress 7000A, Molecular Devices) using standard electrophysiological and pharmacological protocols for isolating the ionic component of interest.
Intracellular Ca^2+ ([Ca^2+]i) transients were imaged by a spinning disc laser confocal microscope (PerkinElmer) on hPSC-CMs loaded with 1.5 μM X-Rhod-1 (Invitrogen) as previously described^66. After dye loading, experiments were performed at 37° C. in Tyrode's solution containing: 140 mM NaCl, 5 mM KCl, 1 mM MgCl2, 1.25 mM CaCl2, 10 mM HEPES and 10 mM D-glucose at pH 7.4. […] The amplitudes of E[Ca^2+]i are presented as the background corrected pseudo ratio (ΔF/F)=(F−Fbase)/(Fbase−B) where Fbase and F is the measured fluorescence intensity before and after stimulation, respectively, and B is the average background signal from areas adjacent to the targeted cell. The transients rise (Vupstroke) and the transients decay (Vdecay) were subsequently calculated and analyzed.
Initially, electrophysiological profiles were obtained and analyzed from patch-clamp recordings and Ca^2+-imaging performed on 30- to 50-day-old single cells isolated from cardiogenic EBs.

On to `Cc1ccc2c(c1)C(=O)C1(O)CCN(c3ccccc3)C1=N2` (stereo not shown) [blebbistatin], for which, in the assay with hESCs, the EB formation efficiency result was “significantly increased” and the “dissociation-induced apoptosis of hESCs” value is on record as “inhibited”.
In the case of `CC(C)NCC(O)c1ccc(O)c(O)c1` (stereo not shown) [isoproterenol], in the assay with hESC-VCMs (30- to 50-day-old single cells, β-adrenergic stimulation), the “chronotropic response (spontaneous AP and Ca2+ transient firings)” value was “positive chronotropic response”. Further, the “Ca2+ transient amplitude (ionotropic response)” value in the assay with hESC-VCMs (β-adrenergic stimulation, p>0.05) was “remained unchanged”.
For `OO` [H2O2, hydrogen peroxide], in the assay on HES2-VCMs, the “JC-1 orange/green intensity ratio” value amounted to 0.410.
As for `Cn1c(=O)c2c(ncn2C)n(C)c1=O` [caffeine], the “caffeine-induced Ca2+ flux (functional sarcoplasmic reticulum)” value in the assay on hESC-VCMs is given as “observed”.
Consider `COc1ccc(CCC(=O)Nc2nc3ccc(Cl)cc3s2)cc1OC` [KY02111], for which the “hPSC-CM per hPSC” value with hPSC (about 4.2×10^6 hPSC-CM from about 6×10^6 seeded per well) is 0.7 hPSC-CM per hPSC. Moreover, the “yield of CM from hPSC differentiation” value in the assay with hPSC (serum- and xeno-free, four hiPSC lines, by inhibiting WNT signaling) is listed as “up to 98%”.
Consider `O=C(Nc1cccc2cccnc12)c1ccc(N2C(=O)[C@@H]3[C@H](C2=O)[C@@H]2C=C[C@H]3C2)cc1` [IWR-1], for which, in the assay with Wnt/β-catenin pathway (Stage 2, days 4.5-8), the “differentiation of cardiac progenitors to the ventricular cardiomyocyte lineage” value was “enhanced”. The “heterogeneity of the hESC-derived cardiomyocytes” value in the assay with Wnt/β-catenin pathway (timely inhibition of Wnt/β-catenin pathway) is on record as “reduced”.

The values are drawn from US10888588B2, “Directed cardiomyocyte differentiation and ventricular specification of stem cells” (ICAHN SCHOOL OF MEDICINE AT MOUNT SINAI, priority 2013, dated 2021).
